Experimental data as given in publication PMC4833300, “Identification of Trypanocidal Activity for Known Clinical Compounds Using a New Trypanosoma cruzi Hit-Discovery Screening Cascade” (PLoS Neglected Tropical Diseases, 2016).
pEC50, pIC50: −log10 of the molar value. Like-named read-outs stand apart in the source and are kept apart here.

Assays:
[1] = test system: intracellular T. cruzi amastigotes; assay: Primary high-content intracellular T. cruzi amastigote assay; assay type: cell-based, Trypanosoma cruzi (Silvio X10/7 A1) in Vero cells
Protocol: (§1) The compounds tested were obtained from the NIH (Clinical Collection) and from SelleckChem (FDA-approved drug library). Compounds were dispensed into black 384-well assay plates (Corning) by acoustic dispensing (LabCyte ECHO). […] Potencies are reported as pEC50 (-LOG(EC50[M])).
(§2) For the primary intracellular assay the infection conditions were chosen so that no trypomastigote egress occurs during the compound incubation time. First, Vero cells were infected overnight with tissue culture derived T. cruzi trypomastigotes in T225 tissue culture flasks (MOI 5). Next, any remaining free trypomastigotes were washed away with serum free MEM and the infected Vero cells were harvested by trypsinisation. The infected Vero cells were then plated into 384-well plates containing the compounds to be tested, at 4000 cells per well in MEM media with 1% FCS. […] The plates were imaged on a Perkin Elmer Operetta high-content imaging system using a 20x objective. Images were analysed using the Columbus system (Perkin Elmer). The algorithm for the primary assay first identified the Vero nuclei followed by demarcation of the cytoplasm and identification of intracellular amastigotes. This algorithm reported mean number of parasites per Vero cell and total number of Vero cells. Data analysis was as described in [22]. […] Hits from the primary screen were selected based on the following criteria: T. cruzi activity (percent inhibition) > (median T. cruzi percent inhibition + 3 x robust Standard Deviation) and Vero activity (percent inhibition) < (median percent Vero inhibition + 3 x robust Standard Deviation).

[2] = test system: Vero cells; assay: Host cell toxicity read-out of the primary assay (Vero cell count); assay type: cell-based; details: Chlorocebus sabaeus, Vero; hits of the bio-actives screen, 10-point dose-response, top concentration 50μM, 72h; read-out: pEC50 (Vero) (converted)
Protocol: as §1, §2

[3] = test system: intracellular T. cruzi; assay: Static-cidal assay (percent infected Vero cells, 96 h); assay type: cell-based, Trypanosoma cruzi (Silvio X10/7 A1) in Vero cells; details: for MAX PI / maximum inhibition in the static-cidal assay: 96h timeframe of the assay
Protocol: The secondary static-cidal assay uses the same protocol as the standard assay with the following changes: infection is done at MOI 10, and infected Vero cells are incubated 88h at 37°C in presence of 5% CO2 prior to trypsinisation and plating. Four hours after plating a control plate (no compounds) was fixed with formaldehyde as described above. Compound containing plates were fixed after incubation for 96 hours. Compounds are run as ten point dose response curves in triplicate. The algorithm for the secondary assay was similar to the primary assay but reported percent infected Vero cells instead of the mean number of parasites.
To assess screening hits for their ability to be cytocidal rather than cytostatic or growth slowing we developed a medium throughput (400 compounds / batch) assay to predict cidality of compounds against intracellular T. cruzi. […] Instead we developed an algorithm that assesses whether a Vero cell is infected or not, and we used the percentage of infected cells as primary measurement for the static-cidal assay. In order to readily identify cidal compounds we normalised the raw data using the starting level of infection as 0% effect and the final level of infection in presence of 50μM Nifurtimox as 100% effect control.

[4] = test system: intracellular T. cruzi; assay: Rate-of-kill assay (static-cidal assay in timecourse format); assay type: cell-based, Trypanosoma cruzi (Silvio X10/7 A1) in Vero cells; details: for MCC: Trypanosoma cruzi, -LOG(MCC[M]), minimum cidal concentration, lowest concentration clearing at least half as many Vero cells as Nifurtimox (50μM) within 96 h, read-out: pMCC (RoK) (converted); for final residual level of infection (percent infected cells at the end of the assay): end of rate-of-kill timecourse (96 h); for rate-of-kill profile (onset / rate of cidal activity): timepoints every 24h up to 96 h
Protocol: The rate-of-kill assay uses the same protocol as the static-cidal assay but plates are incubated for 24, 48, 72 and 96 hours prior to fixing. Percent infected data is plotted as a time-course for each compound at every concentration. The minimum cidal concentration (MCC) is defined as the lowest concentration of compound that clears at least half as many Vero cells of intracellular parasites as Nifurtimox (50μM) within the timeframe of the assay.
To obtain rate-of-kill information we carried out the static-cidal assay in timecourse format (Fig 4A), with timepoints taken every 24h.

[5] = target: CYP51 (Trypanosoma cruzi, UniProt Q7Z1V1); assay: biochemical; assay type: biochemical; details: for IC50: read-out: CYP51 pIC50 (converted)
Chain of CYP51 (Q7Z1V1 whole entry): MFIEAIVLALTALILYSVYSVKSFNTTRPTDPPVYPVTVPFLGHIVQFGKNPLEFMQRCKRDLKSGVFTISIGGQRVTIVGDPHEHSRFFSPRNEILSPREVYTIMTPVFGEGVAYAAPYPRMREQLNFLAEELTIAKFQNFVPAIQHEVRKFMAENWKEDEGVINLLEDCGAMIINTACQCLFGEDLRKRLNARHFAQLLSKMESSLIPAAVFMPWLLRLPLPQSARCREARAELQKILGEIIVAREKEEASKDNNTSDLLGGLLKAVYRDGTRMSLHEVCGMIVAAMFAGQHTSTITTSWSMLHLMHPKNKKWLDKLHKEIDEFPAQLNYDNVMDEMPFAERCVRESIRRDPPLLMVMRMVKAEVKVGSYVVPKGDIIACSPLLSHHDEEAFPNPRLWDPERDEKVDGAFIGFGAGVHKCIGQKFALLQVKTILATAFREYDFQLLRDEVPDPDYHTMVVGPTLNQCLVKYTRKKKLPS

[6] = humans; cited from earlier work
[7] = Trypanosoma cruzi; hits of the bio-actives screen, 10-point dose-response, top concentration 50μM, 72h; read-out: pEC50 (cruzi) (converted)
[8] = Trypanosoma cruzi, Vero, 96 h, 0% = starting level of infection, 100% = 50μM Nifurtimox at 96h, only from concentrations not toxic to the host cells, read-out: MAX PI (SC), Maximum Percent Inhibition in the static cidal assay
[9] = Trypanosoma cruzi, 72 h; read-out: EC50
[10] = Trypanosoma cruzi, 72 h; read-out: Mean pEC50 (converted)

Structure (SMILES): C[C@]12CC[C@H](O)CC1=CC[C@@H]1[C@@H]2CC[C@]2(C)C(c3cccnc3)=CC[C@@H]12 [Abiraterone]
- EC50 [1, 7]: 794 nM
- EC50 [2]: 31600 nM
- Emax [3, 8]: 60%
- MCC [4]: 5.01e-05 M
- IC50 [5]: > 1000 nM

Structure (SMILES): CC[C@@H]([C@H](C)O)n1ncn(-c2ccc(N3CCN(c4ccc(OC[C@@H]5CO[C@@](Cn6cncn6)(c6ccc(F)cc6F)C5)cc4)CC3)cc2)c1=O [Posaconazole]
- pEC50 [1, 9]: 9.00
- EC50 [1, 10]: 1 nM
- MAX PI / maximum inhibition in the static-cidal assay [3]: 60%
- Emax [3, 8]: 59%
- MCC [4]: 1e-07 M
- final residual level of infection (percent infected cells at the end of the assay) [4]: ~ 15%
- rate-of-kill profile (onset / rate of cidal activity) [4]: slower acting with a later onset of cidal activity

Structure (SMILES): c1ccc(-c2ccc(C(c3ccccc3)n3ccnc3)cc2)cc1 (centres unmarked) [Bifonazole]
- EC50 [1, 7]: 10 nM
- EC50 [2]: 15800 nM
- Emax [3, 8]: 69%
- MCC [4]: 6.31e-08 M
- IC50 [5]: 39.8 nM

Structure (SMILES): CC(=O)N1CCN(c2ccc(OCC3COC(Cn4ccnc4)(c4ccc(Cl)cc4Cl)O3)cc2)CC1 (centres unmarked) [Ketoconazole]
- pEC50 [1, 9]: 8.70
- EC50 [1, 10]: 2 nM
- EC50 [1, 7]: 5.01 nM
- EC50 [2]: 31600 nM
- Emax [3, 8]: 61%
- MCC [4]: 7.94e-09 M

Structure (SMILES): CCOC(=O)C(C)(C)Oc1ccc(Cl)cc1 [Clofibrate]
- EC50 [1, 7]: 6310 nM
- EC50 [2]: 15800 nM
- Emax [3, 8]: 116%
- MCC [4]: 1.58e-05 M
- pIC50 [5]: < 5.00
- oral bioavailability [6]: reasonable oral bioavailability

Structure (SMILES): CN1CCC[C@@H]1CCO[C@](C)(c1ccccc1)c1ccc(Cl)cc1 [Clemastine]
- MCC [4]: 2e-07 M
- oral bioavailability [6]: reasonable oral bioavailability

Structure (SMILES): CCC(C)n1ncn(-c2ccc(N3CCN(c4ccc(OCC5COC(Cn6cncn6)(c6ccc(Cl)cc6Cl)O5)cc4)CC3)cc2)c1=O (centres unmarked) [Itraconazole]
- EC50 [1, 7]: 10 nM
- EC50 [2]: 15800 nM
- Emax [3, 8]: 71%
- MCC [4]: 6.31e-08 M

Structure (SMILES): CN1CCCC(n2nc(Cc3ccc(Cl)cc3)c3ccccc3c2=O)CC1 (centres unmarked) [Azelastine]
- EC50 [1, 7]: 251 nM
- EC50 [2]: 15800 nM
- Emax [3, 8]: 106%
- MCC [4]: 2e-06 M
- rate-of-kill profile (onset / rate of cidal activity) [4]: a more delayed response
- IC50 [5]: > 10000 nM
- oral bioavailability [6]: reasonable oral bioavailability

Structure (SMILES): CCOC(=O)C1=C(COCCN)NC(C)=C(C(=O)OC)C1c1ccccc1Cl (centres unmarked) [Amlodipine]
- EC50 [1, 7]: 501 nM
- Emax [3, 8]: 113%
- IC50 [5]: > 10000 nM

Structure (SMILES): O=C1Cc2cc(CCN3CCN(c4nsc5ccccc45)CC3)c(Cl)cc2N1 [Ziprasidone]
- EC50 [1, 7]: 1580 nM
- EC50 [2]: 25100 nM
- Emax [3, 8]: 111%
- MCC [4]: 5.01e-06 M
- rate-of-kill profile (onset / rate of cidal activity) [4]: fast onset of cidality
- IC50 [5]: > 10000 nM
- oral bioavailability [6]: reasonable oral bioavailability

Structure (SMILES): CC1CS(=O)(=O)CCN1/N=C/c1ccc([N+](=O)[O-])o1 (centres unmarked) [Nifurtimox]
- pEC50 [1, 9]: 6.59
- EC50 [1, 10]: 251 nM
- MAX PI / maximum inhibition in the static-cidal assay [3]: around 100%
- inhibition at 50 µM [3, 8]: 103%
- MCC [4]: 5.01e-06 M
- final residual level of infection (percent infected cells at the end of the assay) [4]: ~ 8%
- rate-of-kill profile (onset / rate of cidal activity) [4]: killing seen from 24h onwards
- pIC50 [5]: < 5.00

Structure (SMILES): CC(C(O)c1ccc(O)cc1)N1CCC(Cc2ccccc2)CC1 (centres unmarked) [Ifenprodil]
- EC50 [1, 7]: 501 nM
- EC50 [2]: 50100 nM
- Emax [3, 8]: 117%
- MCC [4]: 2e-06 M
- IC50 [5]: > 10000 nM
- oral bioavailability [6]: reasonable oral bioavailability

Structure (SMILES): Cc1cn(-c2cc(NC(=O)c3ccc(C)c(Nc4nccc(-c5cccnc5)n4)c3)cc(C(F)(F)F)c2)cn1 [Nilotinib]
- EC50 [1, 7]: 2510 nM
- Emax [3, 8]: 38%
- rate-of-kill profile (onset / rate of cidal activity) [4]: a much slower rate
- CYP51 inhibition (in words) [5]: strong CYP51 inhibition

Structure (SMILES): O=C(Cn1ccnc1[N+](=O)[O-])NCc1ccccc1 [Benznidazole]
- pEC50 ([1]; Trypanosoma cruzi, 72 h): 6.31
- EC50 ([1]; Trypanosoma cruzi, 72 h, read-out: Mean pEC50 (converted)): 501 nM
- MAX PI / maximum inhibition in the static-cidal assay [3]: around 100%
- Emax ([3]; Trypanosoma cruzi, Vero, 96 h, read-out: MAX PI (SC), Maximum Percent Inhibition in the static cidal assay): 91%
- final residual level of infection (percent infected cells at the end of the assay) [4]: ~ 8%
- rate-of-kill profile (onset / rate of cidal activity) [4]: killing seen from 24h onwards
- IC50 [5]: > 10000 nM
